The IC50 is the point on the concentration scale where inhibition reaches its midpoint.

Values joined by “and” are separate entries in the source; they are usually repeats but may differ in a detail not shown here. Equal values may be shown once. No end group written: not given here.

T1 sequence (O14786 22-923): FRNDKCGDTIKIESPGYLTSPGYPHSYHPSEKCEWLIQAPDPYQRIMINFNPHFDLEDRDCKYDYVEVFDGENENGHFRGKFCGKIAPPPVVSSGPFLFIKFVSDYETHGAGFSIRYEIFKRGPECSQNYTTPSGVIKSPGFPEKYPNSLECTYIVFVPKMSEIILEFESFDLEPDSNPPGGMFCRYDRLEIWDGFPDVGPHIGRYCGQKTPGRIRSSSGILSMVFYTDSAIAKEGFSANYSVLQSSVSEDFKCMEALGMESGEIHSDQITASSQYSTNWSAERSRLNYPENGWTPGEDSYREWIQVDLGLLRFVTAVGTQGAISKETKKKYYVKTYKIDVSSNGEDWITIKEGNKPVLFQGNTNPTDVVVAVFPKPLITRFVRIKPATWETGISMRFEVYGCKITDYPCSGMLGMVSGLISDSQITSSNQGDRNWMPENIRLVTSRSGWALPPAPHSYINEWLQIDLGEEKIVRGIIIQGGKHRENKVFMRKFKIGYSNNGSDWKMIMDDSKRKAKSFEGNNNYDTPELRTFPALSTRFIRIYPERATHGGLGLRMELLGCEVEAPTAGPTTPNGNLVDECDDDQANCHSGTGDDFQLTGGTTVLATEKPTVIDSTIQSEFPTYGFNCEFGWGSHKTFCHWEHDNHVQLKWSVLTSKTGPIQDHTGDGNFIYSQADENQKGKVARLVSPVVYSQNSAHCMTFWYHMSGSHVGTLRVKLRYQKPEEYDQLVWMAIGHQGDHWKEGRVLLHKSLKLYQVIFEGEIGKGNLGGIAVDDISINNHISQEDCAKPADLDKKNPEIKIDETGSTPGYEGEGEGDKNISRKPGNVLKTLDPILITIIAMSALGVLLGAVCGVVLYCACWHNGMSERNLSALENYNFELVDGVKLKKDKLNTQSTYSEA

This test has as its target T1, recombinant human NRP-1 (hNRP-1) (Homo sapiens, UniProt O14786).
T1 construct: purchased BioLegend, San Diego, CA, USA
The test can be described thus: chemoluminescence affinity detection: displacement of biotinylated VEGF165A from coated NRP-1. The test is classed as binding. The note with it: VEGF 165A displacement from NRP-1; compounds at 12.5-100 µM; ± standard (fitting) error.
Method: In this work, a dedicated chemoluminescence affinity detection method was used.
Briefly, the surfaces of flat-bottom polystyrene wells of 96-well plates were coated with human recombinant Neuropilin-1. The wells were then incubated with human biotinylated VEGF165A {h(bt)VEGF} and subsequently with different concentrations of studied compounds, which then competitively bound to the NRP-1 detaching VEGF. The wells were then treated with streptavidin–horseradish peroxidase conjugate and with chemoluminescent substrate. Thus, the obtained color signal was directly proportional to the amount of bound biotinylated VEGF and therefore to the strength of the interaction of studied compounds with NRP-1 competing with VEGF. IC50 was calculated as the concentration at which half of the bound VEGF was detached from NRP-1.
The flat-bottom wells of polystyrene microplates (Nunc Immuno™ MicroWell™ 96 well solid plates) were coated overnight at 4 °C with recombinant human NRP-1 (hNRP-1) (BioLegend, San Diego, CA, USA) at 2 µg/mL. Then, the wells were washed twice with 0.5% Tween20 phosphate-buffered saline (PBS) and subsequently incubated for 2 h at RT with 200 µL of 10.5% BSA in PBS in order to block unspecific binding. The plates were then rinsed with distilled water and were subsequently incubated for 2 h at RT with 50 µL (400 ng/mL) of h(bt)VEGF 165 A (Abcam, Cambridge, UK) in PBS with 4 µg/mL heparine as well as with 50 µL of the studied compounds in PBS in different concentrations (12.5 µM, 25 µM, 50 µM and 100 µM). The plates were rinsed again with distilled water and incubated for 45 min at RT in 100 µL of streptavidin–horseradish peroxidase conjugate in PBS. After one more water rinse, 100 μL chemiluminescent substrate was added. The luminescence was quantified immediately after addition of the substrate. The percentages of inhibition were calculated with the formula 100% − {(S − SN)/(P − NS)} × 100%. S is the intensity of the measured signal, NS is the intensity of the measured signal in the negative control and P is the intensity of the measured signal in the positive control. The positive control was incubated solely with VEGF 165A with no studied compound. Negative control was obtained from wells which were not coated with hNRP-1. All experiments were performed in triplicate. Determination of IC50 was carried out using the nonlinear regression function with Prism (Version 10.1.2, GraphPad software). The standard (fitting) error of the mean was calculated using Prism’s Sy.x function.
As to `N=C(N)NCCCC[C@H](N)C(=O)NCCCC[C@@H](N)C(=O)NCc1cn(Cc2cn([C@@H](CCCNC(=N)N)C(=O)O)nn2)nn1` [1D, H-D-Lys(Har)-Gly[Trl]Gly[Trl]Arg-OH], the IC50 turned out to be 63.6 ± 2.3 µM. Then `N=C(N)NCCCC[C@H](N)C(=O)NCCCC[C@H](N)C(=O)NCc1cn(Cc2cn([C@@H](CCCNC(=N)N)C(=O)O)nn2)nn1` [1L, H-Lys(Har)-Gly[Trl]Gly[Trl]Arg-OH], with 68.5 ± 3.3 µM; and `CC(C)(c1cn([C@@H](CCCNC(=N)N)C(=O)O)nn1)n1cc(CNC(=O)[C@H](N)CCCCNC(=O)[C@@H](N)CCCCNC(=N)N)nn1` [2D, H-D-Lys(Har)-Gly[Trl]Mba[Trl]Arg-OH], with 69.4 ± 4 µM. Under `CC(C)(c1cn([C@@H](CCCNC(=N)N)C(=O)O)nn1)n1cc(CNC(=O)[C@@H](N)CCCCNC(=O)[C@@H](N)CCCCNC(=N)N)nn1` [2L, H-Lys(Har)-Gly[Trl]Mba[Trl]Arg-OH] stands 87.5 ± 3.3 µM. Under `CC(C)(NC(=O)[C@H](N)CCCCNC(=O)[C@@H](N)CCCCNC(=N)N)c1cn(C(C)(C)c2cn([C@@H](CCCNC(=N)N)C(=O)O)nn2)nn1` [3D, H-D-Lys(Har)-Mba[Trl]Mba[Trl]Arg-OH] stands 91 µM and 90.5 µM. Turning to `CC(C)(NC(=O)[C@@H](N)CCCCNC(=O)[C@@H](N)CCCCNC(=N)N)c1cn(C(C)(C)c2cn([C@@H](CCCNC(=N)N)C(=O)O)nn2)nn1` [3L, H-Lys(Har)-Mba[Trl]Mba[Trl]Arg-OH], the IC50 was 23 µM and 23.4 µM. Turning to `CC(C)(NC(=O)[C@H](N)CCCCNC(=O)[C@@H](N)CCCCNC(=N)N)c1cn(Cc2cn([C@@H](CCCNC(=N)N)C(=O)O)nn2)nn1` [4D, H-D-Lys(Har)-Mba[Trl]Gly[Trl]Arg-OH], the IC50 was 36 µM and 35.6 µM. Then “ATWLPPR [A7R, ATWLPPR, reference compound]”, with 31.2 ± 4.2 µM.

Values taken from PMC10891769, “Chirality and Rigidity in Triazole-Modified Peptidomimetics Interacting with Neuropilin-1” (Pharmaceuticals, 2024).
